Source: PMC10088926, “Synthesis, DFT calculations, and anti-proliferative evaluation of pyrimidine and selenadiazolopyrimidine derivatives as dual Topoisomerase II and HSP90 inhibitors” (Journal of Enzyme Inhibition and Medicinal Chemistry, 2023)
“Also recorded” adds a separate entry of the source. Like-named read-outs stand apart in the source and are kept apart here.

Key:
[1] = system: MCF-7, HepG-2 and A-549 cells; test: Anti-proliferative screening, classification over the three cell lines; assay type: cell-based; settings: compared to methotrexate
Experimental: (§1) All experiments were conducted in triplicate.
(§2) Scaffold I compounds were characterised by the uracil core attached to the 5,5-dimethyl cyclohexanone moiety through an NH linker and bearing an amino group at position 6. The activity of such compounds could be attributed to the larger number of hydrogen bond donors when compared to compounds with scaffold II. On the other hand, the activity of 5d with scaffold II could be attributed to the nature of the substituent at N1 of the pyrimidine ring being a hydrophobic benzyl group that could be involved in hydrophobic interaction and π-π stacking. Generally, the isosteric substitution of oxo with thioxo at position 2 of the pyrimidine ring lowered the anti-proliferative activity in both scaffolds I and II compounds.

Topoisomerase II = biological target: T1, Topoisomerase II (Homo sapiens, UniProt P11388); test: In vitro Topoisomerase II enzyme inhibition assay (plasmid-based kit); assay type: biochemical
T1 construct: purchased
Experimental: (§3) In vitro enzyme inhibitory assay of compounds 3a and 5d was performed against Topoisomerase-II enzyme using Topoisomerase II Assay Kit (plasmid-based)[34] and HSP90 enzyme using HSP90 (C-Terminal) Inhibitor Screening Assay Kit[35]. The procedure of the used kits was done according to the manufacturer’s instructions.
Topoisomerase II inhibitors can cause DNA damage and halt the cell cycle.

[2] = system: MCF-7 cells (human breast cancer cell line); test: In vitro cytotoxicity, viability assay (MTT method), MCF-7; assay type: cell-based; settings: MCF7, 24 h incubation, triplicate, read-out: IC50 values (mean ± SD) MCF-7
Experimental: as §1, §2

HSP90 = test: In vitro HSP90 enzyme inhibition assay (HSP90 (C-Terminal) Inhibitor Screening Assay Kit); assay type: biochemical; settings: read-out: HSP90 IC50 (mean ± SD)
Experimental: as §3
As reported, cancer cell growth and proliferation are inhibited when HSP90 is inhibited.

[3] = In vitro cytotoxicity against normal WI-38 cell line; settings: human
Excerpt: The viability assay (MTT method)[33] was used to evaluate the cytotoxic activity of the synthesised compounds against three mammalian tumour cell lines obtained from the VACSERA Tissue Culture Unit, namely MCF-7 cells (human breast cancer cell line), HepG-2 cells (human Hepatocellular carcinoma), and A-549 cells (lung carcinoma), as well as the normal WI-38 human cell line for both compounds 3a and 5d. […] 1% Crystal violet stain: it is composed of 0.5% (w/v) crystal violet and 50% methanol, which is then diluted to volume with ddH2O and filtered through a Whatman No.1 filter paper. Dulbecco’s modified Eagle’s medium (DMEM) supplemented with 10% heat-inactivated foetal bovine serum, 1% L-glutamine, HEPES buffer, and 50 μg/mL gentamycin was used to grow the cells. All cells were cultured twice a week and kept at 37 °C in a humidified atmosphere with 5% CO2. In 100 μL of the growth medium, the cells were seeded in a 96-well plate at a cell concentration of 1 × 10^4 cells per well. After 24 h of seeding, a fresh medium containing different concentrations of the test sample was added. A multichannel pipette was used to add serial two-fold dilutions of the tested chemical compound to confluent cell monolayers dispensed into 96-well, flat-bottomed microtiter plates (Falcon, NJ, USA). The microtiter plates were incubated for 24 h at 37 °C in a humidified incubator with 5% CO2. For each concentration of the test sample, three wells were used. […] Glacial acetic acid (30%) was thoroughly mixed into all wells, and the absorbance of the plates was measured. Background absorbance detected in wells without added stain was corrected for in all results. […] Each tested compound’s cytotoxic effect on cells was calculated. To determine the number of viable cells, the optical density was measured using a microplate reader (Sunrise, TECAN, Inc, USA), and the percentage of viability was calculated as [(ODt/ODc)] × 100%, where ODt is the mean optical density of wells treated with the tested sample and ODc is the mean optical density of untreated cells. […]

[4] = system: A-549 cells (lung carcinoma); test: In vitro cytotoxicity, viability assay (MTT method), A-549; assay type: cell-based; settings: Homo sapiens, A549, 24 h incubation, triplicate, read-out: IC50 values (mean ± SD) A-549
Experimental: as §1, §2

[5] = system: HepG-2 cells (human Hepatocellular carcinoma); test: In vitro cytotoxicity, viability assay (MTT method), HepG-2; assay type: cell-based; settings: HepG2, 24 h incubation, triplicate, read-out: IC50 values (mean ± SD) HepG-2
Experimental: as §1, §2

caspase-3 gene = caspase-3 gene expression (RT-PCR) in HepG-2; assay type: cell-based, human; settings: HepG-2, compared to control cells
Experimental: (§4) The level of Topoisomerase II, HSP90, and caspase-3 gene expression were assessed using Bio-Rad RT-PCR Kit following the manufacturer’s instructions. HepG-2 cells were exponentially grown and then treated with 3a after treatment with DNA polymerase and fluorescein. The expression of Topoisomerase II, HSP90, and caspase-3 genes was measured fluorometrically.
(§5) A caspase family is a group of cysteine proteases that activates apoptosis through receptor or mitochondrial-dependent cell death. Caspase-3 activation catalyses the cleavage of key cellular proteins, leading to both mitochondrial-dependent and non-dependent cell death. Caspase-3 is also associated with cell rupture and the formation of apoptotic bodies. The effect of 3a on caspase-3 gene expression was studied in HepG-2 cell lines. […] The gene that encodes DNA Topoisomerase II controls the topology of […] during DNA transcription. This gene is a target for anti-proliferative agents by altering enzyme activity. In the present work, the effect of 3a on the expression of the gene encoding Topoisomerase II in the supernatant of HepG-2 cell lines was studied. […] Furthermore, the HSP90 encoding gene interferes with the proper folding of specified protein targets and interferes with ATP binding.

HepG-2 cells [6] = test: Cellular apoptosis analysis (Annexin V-FITC/PI); assay type: cell-based, human; settings: HepG-2, 14.31 μM, 24 h; untreated cells 0.58%
Experimental: Annexin V is a protein that has a high affinity to bind to membrane phosphatidylserine (PS) translocated from the inner cellular plasma membrane to the cell surface after apoptosis initiation following the manufacturer protocol (Biovision, USA)[37]. HepG-2 cells in exponential growth were treated with compound 3a and incubated for 24 h. Then, 1–5 × 10^5 were collected via centrifugation and suspended in 500 µL of 1X Binding Buffer, 5 µL of Annexin V-FITC, and 5 µL of propidium iodide were added and allowed to incubate in the dark for 5 min, then Annexin V-FITC binding was quantified by flow cytometry using emission signal detector at 530 nm.
Using HepG-2 cells and the Annexin FITC/PI dual-labelling technique, 3a-induced apoptosis was investigated.

[7] = system: gene encoding Topoisomerase II; test: Topoisomerase II gene expression (RT-PCR) in HepG-2; assay type: cell-based, human; settings: supernatant of HepG-2 cell lines, compared to control cells
Experimental: as §4, §5

HepG-2 cells [8] = test: Flow cytometric analysis of cell-cycle distribution (propidium iodide); assay type: cell-based, human
Experimental: Cell-cycle analysis was performed by DNA staining with propidium iodide (PI) following the manufacturer’s protocol (Abcam, USA)[36]. HepG-2 cells were cultured following the procedure till exponential growth was reached. After removing the culture media, the cells were rinsed with phosphate buffer. Cells were then treated with 3a and suspended in 66% ethanol on the ice at 4 °C. Then, PI was added together with the RNase staining solution. Incubation was allowed for 20–30 min at 37 °C in the dark. For the preparation of flow cytometry, fixed cells were placed on ice. Podium iodide fluorescence was collected using 488 nm laser illumination.
Thus, it was studied further to determine the mechanism of its cell growth inhibition. The standard PI flow cytometry assay was used to investigate cell cycle distribution and apoptosis induction in HepG-2 cells. […] 3a halts the cell cycle of HepG-2 at the G1-S phase.

gene encoding HSP90 = test: HSP90 gene expression (RT-PCR) in HepG-2; assay type: cell-based, human; settings: supernatant of HepG-2 cell lines, compared to control cells
Experimental: as §4, §5

T1 sequence (P11388 whole entry): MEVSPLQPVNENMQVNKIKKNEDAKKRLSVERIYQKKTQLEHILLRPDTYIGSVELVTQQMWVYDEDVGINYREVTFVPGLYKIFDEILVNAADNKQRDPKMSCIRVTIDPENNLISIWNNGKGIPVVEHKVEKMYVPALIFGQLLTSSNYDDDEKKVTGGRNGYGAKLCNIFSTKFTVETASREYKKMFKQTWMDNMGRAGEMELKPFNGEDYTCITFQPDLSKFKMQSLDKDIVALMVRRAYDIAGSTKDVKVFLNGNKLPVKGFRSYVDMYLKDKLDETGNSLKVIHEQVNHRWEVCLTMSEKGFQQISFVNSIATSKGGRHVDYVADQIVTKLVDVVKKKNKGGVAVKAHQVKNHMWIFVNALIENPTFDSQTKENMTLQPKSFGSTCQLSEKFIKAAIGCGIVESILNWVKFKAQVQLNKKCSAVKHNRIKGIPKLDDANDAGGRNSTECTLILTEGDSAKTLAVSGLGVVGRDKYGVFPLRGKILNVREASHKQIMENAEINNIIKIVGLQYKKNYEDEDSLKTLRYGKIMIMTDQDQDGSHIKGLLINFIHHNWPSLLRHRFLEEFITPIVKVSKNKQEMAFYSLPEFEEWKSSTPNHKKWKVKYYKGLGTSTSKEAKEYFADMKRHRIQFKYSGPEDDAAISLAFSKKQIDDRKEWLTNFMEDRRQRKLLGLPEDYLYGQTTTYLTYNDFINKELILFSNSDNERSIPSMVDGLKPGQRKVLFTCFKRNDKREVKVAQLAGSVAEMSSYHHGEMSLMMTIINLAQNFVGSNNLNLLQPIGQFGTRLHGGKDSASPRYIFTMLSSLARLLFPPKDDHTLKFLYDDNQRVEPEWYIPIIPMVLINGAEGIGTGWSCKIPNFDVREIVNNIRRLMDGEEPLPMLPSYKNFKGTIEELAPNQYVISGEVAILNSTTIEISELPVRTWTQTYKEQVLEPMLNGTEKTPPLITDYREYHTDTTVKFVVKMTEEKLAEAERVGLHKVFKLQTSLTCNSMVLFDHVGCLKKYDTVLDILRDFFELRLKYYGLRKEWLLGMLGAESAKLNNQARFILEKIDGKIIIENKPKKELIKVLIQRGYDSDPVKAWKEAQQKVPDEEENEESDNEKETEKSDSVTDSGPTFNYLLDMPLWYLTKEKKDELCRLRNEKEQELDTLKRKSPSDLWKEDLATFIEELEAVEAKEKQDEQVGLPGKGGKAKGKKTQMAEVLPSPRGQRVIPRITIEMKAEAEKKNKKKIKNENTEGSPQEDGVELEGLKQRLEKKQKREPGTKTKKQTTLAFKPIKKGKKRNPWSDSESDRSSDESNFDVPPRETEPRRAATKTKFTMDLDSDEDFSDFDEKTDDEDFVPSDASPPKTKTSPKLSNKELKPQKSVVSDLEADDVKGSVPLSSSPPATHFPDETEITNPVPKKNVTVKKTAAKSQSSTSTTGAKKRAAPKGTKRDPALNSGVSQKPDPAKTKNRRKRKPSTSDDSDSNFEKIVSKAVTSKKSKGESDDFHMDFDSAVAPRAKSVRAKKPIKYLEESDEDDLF

| SMILES | anti-proliferative activity category [1] | melting point | IC50 [2] | IC50 [4] | IC50 [5] | other results |
| --- | --- | --- | --- | --- | --- | --- |
| O=c1[nH]c(=O)n(Cc2ccccc2)c2n[se]nc12 [Compound 5d, 4-Benzyl-[1,2, 5]selenadiazolo[3,4-d]pyrimidine-5,7(4H,6H)-dione] | moderate to high | 260 to 261 °C | 29.3 ± 0.86 µM | 26.8 ± 0.89 µM | 17.7 ± 0.81 µM | IC50 (Topoisomerase II): 8.39 ± 1.07 µM; IC50 (HSP90): 7.69 ± 0.46 µM; IC50 at 24 h [3]: 54.6 ± 2.05 µM |
| CC1(C)CC(=O)C=C(Nc2c(N)n(Cc3ccccc3Cl)c(=O)[nH]c2=O)C1 [Compound 3b, 6-Amino-1-(2-chlorobenzyl)-5-((5,5-dimethyl-3-oxocyclohex-1-en-1-yl)amino)pyrimidine-2,4(1H,3H)-dione] | low to moderate | 294 to 296 °C | 46.1 ± 1.63 µM | 36.4 ± 1.09 µM | 40.4 ± 1.25 µM |  |
| CC1(C)CC(=O)C=C(Nc2c(N)[nH]c(=O)[nH]c2=O)C1 [Compound 3a, 6-Amino-5-((5,5-dimethyl-3-oxocyclohex-1-en-1-yl)amino)pyrimidine-2,4(1H,3H)-dione] | moderate to high |  | 27.1 ± 1.91 µM | 30.7 ± 0.76 µM | 14.3 ± 0.83 µM | caspase-3 gene expression (caspase-3 gene): upregulating; also recorded: increased; also recorded: upregulated; IC50 (Topoisomerase II; in vitro enzyme assay, read-out: Topoisomerase II IC50 (mean ± SD)): 4.48 ± 0.65 µM; IC50 (HSP90): 1.78 ± 0.11 µM; total apoptotic cells (HepG-2 cells [6]): 37.93%; Topoisomerase II gene expression [7]: downregulating; also recorded: downregulate; IC50 at 24 h [3]: 80.8 ± 3.04 µM; phase at which the cell cycle is halted (HepG-2 cells [8]; HepG-2): G1-S phase; %DIP G1 (cells in the G1-S phase) (HepG-2 cells [8]; HepG-2, 14.31 μM, untreated cells 43.82% (±2.61)): 51.46%; HSP90 gene expression (gene encoding HSP90): downregulating; also recorded: downregulated |
| Cn1c(N)c(NC2=CC(=O)CC(C)(C)C2)c(=O)[nH]c1=S [Compound 3c, 6-Amino-5-((5,5-dimethyl-3-oxocyclohex-1-en-1-yl)amino)-1-methyl-2-thioxo-2,3-dihydropyrimidin-4(1H)-one] | low | > 300 °C | > 100 µM | > 100 µM | > 100 µM |  |
| CN(Cc1cnc2nc(N)nc(N)c2n1)c1ccc(C(=O)N[C@@H](CCC(=O)O)C(=O)O)cc1 [Methotrexate, reference compound] |  |  | 29.5 ± 2.19 µM | 34.5 ± 2.19 µM | 21.9 ± 1.08 µM |  |
| Cn1c(N)c(NC2=CC(=O)CC(C)(C)C2)c(=O)[nH]c1=O [Compound 3f, 6-Amino-5-((5,5-dimethyl-3-oxocyclohex-1-en-1-yl)amino)-1-methylpyrimidine-2,4(1H,3H)-dione] | low | > 300 °C | > 100 µM | > 100 µM | > 100 µM |  |
| CC1(C)CC(=O)C=C(Nc2c(N)n(Cc3ccccc3)c(=O)[nH]c2=O)C1 [Compound 3e, 6-Amino-1-benzyl-5-((5,5-dimethyl-3-oxocyclohex-1-en-1-yl)amino)pyrimidine-2,4(1H,3H)-dione] | low to moderate | 292 to 294 °C | > 100 µM | 44 ± 1.28 µM | 47.6 ± 1.39 µM |  |
| Cn1c(=O)[nH]c(=O)c2n[se]nc21 [Compound 5e, 4-Methyl-[1,2, 5]selenadiazolo[3,4-d]pyrimidine-5,7(4H,6H)-dione] | low | > 300 °C | > 100 µM | > 100 µM | > 100 µM |  |
| O=c1[nH]cc(F)c(=O)[nH]1 [5-Fluorouracil, reference compound] |  |  | 10.1 ± 0.44 µM | 12.3 ± 0.53 µM | 7.37 ± 0.29 µM |  |
| Cn1c(=S)[nH]c(=O)c2n[se]nc21 [Compound 5b, 4-Methyl-5-thioxo-5,6-dihydro-[1,2,5]selenadiazolo[3,4-d]pyrimidin-7(4H)-one] | low to moderate | > 300 °C | 98.1 ± 3.45 µM | 68.7 ± 3.86 µM | 57.9 ± 2.43 µM |  |
| CCn1c(N)c(NC2=CC(=O)CC(C)(C)C2)c(=O)[nH]c1=O [Compound 3d, 6-Amino-5-((5,5-dimethyl-3-oxocyclohex-1-en-1-yl)amino)-1-ethylpyrimidine-2,4(1H,3H)-dione] | moderate to high | > 300 °C | 31.4 ± 1.39 µM | 33.3 ± 0.99 µM | 21.6 ± 0.76 µM |  |
| CCn1c(=O)[nH]c(=O)c2n[se]nc21 [Compound 5c, 4-Ethyl-[1,2, 5]selenadiazolo[3,4-d]pyrimidine-5,7(4H,6H)-dione] |  | > 300 °C | 39.7 ± 1.32 µM | 42.5 ± 1.19 µM | 33.4 ± 1.09 µM |  |
| Cn1c(=O)c2n[se]nc2n(C)c1=O [Compound 7, 4,6-Dimethyl-[1,2, 5]selenadiazolo[3,4-d]pyrimidine-5,7(4H,6H)-dione] | low | 278 to 280 °C | > 100 µM | > 100 µM | > 100 µM |  |
| Nc1c(N=[Se]=O)c(=O)[nH]c(=O)n1Cc1ccccc1Cl |  | > 300 °C |  |  |  |  |
| COc1cccc2c1C(=O)c1c(O)c3c(c(O)c1C2=O)C[C@@](O)(C(=O)CO)C[C@@H]3O[C@H]1C[C@H](N)[C@H](O)[C@H](C)O1 [Doxorubicin, reference compound] |  |  |  |  |  | IC50 at 24 h [3]: 19.6 ± 0.74 µM |
| O=c1[nH]c(=O)c2n[se]nc2[nH]1 [Compound 5a, [1,2, 5]selenadiazolo[3,4-d]pyrimidine-5,7(4H,6H)-dione] | low to moderate | > 300 °C | 51.9 ± 1.48 µM | 58 ± 2.13 µM | 51.7 ± 2.09 µM |  |
